Laboratory results published in PubChem BioAssay (NCI).
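Following 48 hours of exposure in 96-well plates, responses at five concentrations were used to interpolate endpoints linearly. GI50 is the concentration that inhibits growth by half. TGI: total growth inhibition.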

Assays:
Experiment in all cases: growth of human tumour cells (NCI), 48 h
SF-268 CNS = tested on: SF-268 CNS
COLO 205 colon = tested on: COLO 205 colon
OVCAR-8 ovarian = tested on: OVCAR-8 ovarian
M14 melanoma = tested on: M14 melanoma
CAKI-1 renal = tested on: CAKI-1 renal
HS 578T breast = tested on: HS 578T breast
MOLT-4 leukemia = tested on: MOLT-4 leukemia
NCI-H522 lung = tested on: NCI-H522 lung
SR leukemia = tested on: SR leukemia
NCI-H226 lung = tested on: NCI-H226 lung

Row | Compound | TGI (SF-268 CNS) [µM] | TGI (COLO 205 colon) [µM] | TGI (OVCAR-8 ovarian) [µM] | TGI (M14 melanoma) [µM] | TGI (CAKI-1 renal) [µM] | TGI (HS 578T breast) [µM] | TGI (MOLT-4 leukemia) [µM] | TGI (NCI-H522 lung) [µM] | TGI (SR leukemia) [µM] | TGI (NCI-H226 lung) [µM] | GI50 (CAKI-1 renal) [µM] | GI50 (MOLT-4 leukemia) [µM]
1 | COc1ccc(N2CN(C)CSC2=S)cc1 | > 100 | > 100 | > 100 | > 100 | > 100 | > 100 | > 100 | > 100 | – | – | – | –
2 | Cc1c(OCCCOc2ccc3c(=O)cc(-c4ccccc4)oc3c2C)ccc2c(=O)cc(-c3ccccc3)oc12 | > 100 | – | > 100 | > 100 | > 100 | – | > 100 | > 100 | > 100 | – | – | –
3 | C=CCOC(=O)c1c(C)n([O-])c2cc(Cl)c(Cl)cc2[n+]1=O | 29.5 | 32.6 | 41.9 | 38.8 | 39.6 | 65.9 | 54.4 | 28.1 | 13.1 | 38.9 | – | –
4 | O=C1C(C(c2ccc([N+](=O)[O-])cc2)N2CCOCC2)=C(O)C(c2ccccc2)N1c1ccccc1 (centres undefined) | > 10 | > 10 | > 10 | > 10 | > 10 | > 10 | > 10 | > 10 | > 10 | > 10 | – | –
5 | Nc1ncnc2c1ncn2C1OC(CO)C(O)C1NS(=O)(=O)c1ccccc1 (centres undefined) | > 100 | > 100 | > 100 | > 100 | > 100 | > 100 | > 100 | > 100 | > 100 | > 100 | – | –
6 | Cc1ccc2n(c1)cc(-c1ccc(/C=N/NC(=N)N/N=C/c3ccc(-c4cn5cc(C)ccc5[n+]4C)cc3)cc1)[n+]2C | 43.8 | > 100 | > 100 | > 100 | – | > 100 | > 100 | > 100 | > 100 | – | – | –
7 | CCOC(=O)CCC(NC(=O)c1ccc(Nc2nc3cc(C(F)(F)F)ccc3nc2C(=O)OCC)cc1)C(=O)OCC (centres undefined) | 28.6 | > 100 | 24.6 | 16.9 | – | – | > 100 | 42.2 | > 100 | – | – | –
8 | Brc1c2nc3ccccc3nc2n2ccc3ccccc3c12 | > 100 | > 100 | > 100 | > 100 | > 100 | – | > 100 | > 100 | > 100 | – | – | –
9 | O=C(/C=C/c1ccc(OCc2ccccc2)cc1)NCc1ccc(C(=O)NCc2ccccc2)cc1 | > 100 | > 100 | > 100 | > 100 | > 100 | > 100 | > 100 | > 100 | > 100 | > 100 | – | –
10 | CC1(C)Oc2ccc3c(=O)cc(-c4cccs4)oc3c2C1C(=O)O (centres undefined) | > 100 | > 100 | > 100 | > 100 | 60.4 | > 100 | > 100 | > 100 | > 100 | > 100 | – | –
11 | COc1cccc2c1C(=O)c1c(O)c3c(c(O)c1C2=O)C[C@@](O)(C(=O)CN1CCOCC1)C[C@@H]3OC1CC(N)C(O)C(C)O1 (some centres undefined) | 51.3 | 24.1 | 89.5 | – | > 53.8 | – | 1.15 | 15.4 | – | 8.78 | 2.61 | 0.234
12 | O=C(NNS(=O)(=O)c1ccc(Br)cc1)c1ccc(Cl)cc1NC(=O)C12CC3CC(CC(C3)C1)C2 | 24.9 | 24.5 | 31.9 | 33.6 | 56.6 | 40.7 | 73.9 | 25.1 | 35.5 | 35.6 | – | –
13 | C/C=C/c1cc2c(c(=O)o1)C(=O)[C@@H](O)[C@H](C)O2 | 30 | 25.7 | 35 | – | 31.3 | – | 49.3 | 20.4 | – | 38.5 | – | –
14 | N/C(=N\S(=O)(=O)c1ccc(-c2ccccn2)s1)Nc1ccc(Cl)cc1 | 36.6 | 35.9 | 37.6 | 33.6 | 24.9 | 59.6 | 5.61 | 24.4 | 53.1 | 35.8 | – | –
15 | C[N+](C)=c1ccc2nc3c(ccc4ccccc43)oc-2c1 | 29.7 | > 57.9 | 26 | 24.7 | 28.9 | – | 20.4 | 8.07 | > 100 | 33.5 | – | –
16 | COc1ccc(C2S/C(=C\c3cccc(OC)c3)C(=O)N2NC(=O)Cc2ccccc2)cc1 (centres undefined) | > 100 | > 100 | > 100 | > 100 | > 100 | – | > 100 | > 100 | > 100 | > 100 | – | –
17 | COC(=O)CCCC1(CCCC(=O)OC)CCCCCCCCC(CCCC(=O)OC)(CCCC(=O)OC)C(=O)C1=O | 55.3 | > 100 | > 100 | > 100 | 24.4 | > 100 | – | 5.38 | 85.5 | > 100 | – | –
18 | CO[C@H]1CC[C@]2(C)C3=CC[C@@]4(C)C(CC[C@@H]4C(C)CC[C@@H](C)C(C)C)C(=CCC2C1)O3 (some centres undefined) | > 25 | > 25 | > 25 | > 25 | > 25 | – | > 25 | > 25 | > 25 | > 25 | – | –
19 | C=C1C(=O)[C@]23C[C@H]1C[C@@H](O)[C@H]2[C@]1(COC3=O)[C@@H](OC(C)=O)CC[C@@](C)(COC(C)=O)[C@H]1C=O | 43.5 | 16.4 | > 50 | – | 18.8 | > 50 | 18.2 | 14.6 | > 50 | 19 | – | –
20 | C[C@]12C(=O)C=CCC1=CC[C@@H]1[C@@H]2[C@H]2CC3(O)C(=O)O[C@@]4(C)[C@H]5C[C@@]6(C)[C@@H]7[C@@]2(O)[C@]1(OC[C@H]6C(=O)O5)O[C@]734 (some centres undefined) | > 100 | > 100 | > 100 | > 100 | > 100 | > 100 | 90.3 | 46.2 | 75.2 | – | – | –
21 | COCCOC(C)C(=O)C(O)S(=O)(=O)O (centres undefined) | > 100 | > 100 | > 100 | > 100 | – | > 100 | > 100 | > 100 | > 100 | > 100 | – | –
22 | Nc1nc(Nc2ccc(Cl)cc2)sc1C(=O)c1c[nH]c2ccccc12 | 60 | 18 | – | 23.5 | – | 71.3 | – | – | > 100 | 46.1 | – | –
23 | CC(=O)Oc1c2c(c(OC(C)=O)c3c1n(C(C)=O)c1ccccc1n3C(C)=O)n(C(C)=O)c1ccccc1n2C(C)=O | 24.9 | – | – | 20.7 | 55.1 | – | 8.7 | 5.97 | 7.69 | – | – | –
